ChEMBL document CHEMBL4251699, “In Search of the Optimal Macrocyclization Site for Neurotensin” (ACS Med Chem Lett, 2018)
pEC50, pIC50: −log10 of the molar value. Numbered stars: 1 amine (or outer) side, 2 acyl side, 3 side chain; on linkers, the order of the positions; unused ones are H or OH. Bridge positions count the residues as written; N and C are the ends. Square brackets hold non-standard residues; d marks the D form. Peptide text beside a SMILES is read from it. * marks the point of attachment. X1 = O=C([C@H](Cc1ccc(O)c(CC=[*:3])c1)N[*:1])[*:2]; X3 = C=CCc1cc(C[C@H](N[*:1])C(=O)[*:2])ccc1O; Ser(allyl) = C=CCOC[C@H](N)C(=O)O; AllylGly = C=CC[C@H](N)C(=O)O; X2 = C=CCCCCCCC(=O)*

Molecular target: T1, Neurotensin receptor type 1 (Homo sapiens, UniProt P30989)
T1 sequence (P30989 whole entry): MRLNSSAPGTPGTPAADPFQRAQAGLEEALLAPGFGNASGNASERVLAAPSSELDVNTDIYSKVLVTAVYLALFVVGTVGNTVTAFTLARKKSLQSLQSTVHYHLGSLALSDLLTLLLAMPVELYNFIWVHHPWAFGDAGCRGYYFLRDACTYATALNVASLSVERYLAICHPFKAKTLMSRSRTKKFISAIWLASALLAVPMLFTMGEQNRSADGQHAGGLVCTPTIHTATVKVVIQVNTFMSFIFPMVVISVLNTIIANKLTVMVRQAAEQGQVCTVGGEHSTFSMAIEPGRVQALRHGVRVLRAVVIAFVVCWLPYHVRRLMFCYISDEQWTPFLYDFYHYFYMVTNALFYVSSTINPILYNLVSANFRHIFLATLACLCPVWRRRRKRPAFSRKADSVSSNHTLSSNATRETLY
Assay: Displacement of 125I-[Tyr3]-NT from human NTS1 receptor expressed in CHO-K1 cell membranes after 60 mins by gamma-counting method

Q: With `CC(C)C[C@H](NC(=O)[C@H]1CC=CC[C@H](N)C(=O)N[C@@H](CCCCN)C(=O)N2CCC[C@H]2C(=O)N[C@@H](Cc2ccc(O)cc2)C(=O)N1)C(=O)O` as the compound, how does the pIC50 read?
A: The pIC50 was 4.84.

Q: With `CC(C)C[C@H](NC(=O)[C@@H]1COCC=CCc2cc(ccc2O)C[C@H](NC(=O)[C@@H]2CCCN2C(=O)[C@@H](N)CCCCN)C(=O)N1)C(=O)O` as the compound, how does the pIC50 read?
A: Its pIC50 is 4.53.

Q: With `CC(C)C[C@H](NC(=O)[C@@H]1CC=CC[C@@H](N)C(=O)N[C@@H](CCCCN)C(=O)N2CCC[C@H]2C(=O)N[C@@H](Cc2ccc(O)cc2)C(=O)N1)C(=O)O` as the compound, how does the pIC50 read?
A: The pIC50 was 5.00.

Q: With `CC[C@H](C)[C@H](NC(=O)[C@@H]1Cc2ccc(O)c(c2)CC=CCCCCCCC(=O)N[C@@H](CCCCN)C(=O)N2CCC[C@H]2C(=O)N1)C(=O)N[C@@H](CC(C)C)C(=O)O` as the compound, how does the pIC50 read?
A: Its pIC50 is 6.40.

Q: With `CC(C)C[C@H](NC(=O)[C@H]1CC=CC[C@@H](N)C(=O)N[C@@H](CCCCN)C(=O)N2CCC[C@H]2C(=O)N[C@@H](Cc2ccc(O)cc2)C(=O)N1)C(=O)O` as the compound, how does the pIC50 read?
A: The pIC50 was 4.70.

Q: With `CC(C)C[C@H](NC(=O)[C@@H]1CC=CC[C@H](N)C(=O)N[C@@H](CCCCN)C(=O)N2CCC[C@H]2C(=O)N[C@@H](Cc2ccc(O)cc2)C(=O)N1)C(=O)O` as the compound, how does the pIC50 read?
A: Its pIC50 is 4.77.

Q: With `CC[C@H](C)[C@@H]1NC(=O)[C@H](Cc2ccc(O)cc2)NC(=O)[C@@H]2CCCN2C(=O)[C@@H](NC(=O)[C@@H](N)CCCCN)CC=CC[C@@H](C(=O)O)NC1=O` (H-K[AllylGly]PYI[AllylGly]-OH; staple 2-6) as the compound, how does the pIC50 read?
A: Its pIC50 is under 4.00.

Q: With `CC[C@H](C)[C@H](NC(=O)[C@@H]1Cc2ccc(O)c(c2)CC=CC[C@H](NC(=O)[C@@H](N)CCCCN)C(=O)N2CCC[C@H]2C(=O)N1)C(=O)N[C@@H](CC(C)C)C(=O)O` (H-K[AllylGly]P[X1]IL-OH; staple 2-4) as the compound, how does the pIC50 read?
A: Its pIC50 is 5.12.

Q: With `CC[C@H](C)[C@H](NC(=O)[C@@H]1Cc2ccc(O)c(c2)CC=CCOC[C@H](NC(=O)[C@@H](N)CCCCN)C(=O)N2CCC[C@H]2C(=O)N1)C(=O)N[C@@H](CC(C)C)C(=O)O` (H-K[Ser(allyl)]P[X1]IL-OH; staple 2-4) as the compound, how does the pIC50 read?
A: The pIC50 was 4.99.

Q: With `C=CC[C@H](NC(=O)[C@H](Cc1ccc(O)cc1)NC(=O)[C@@H]1CCCN1C(=O)[C@H](CCCCN)NC(=O)[C@@H](N)CC=C)C(=O)N[C@@H](CC(C)C)C(=O)O` (H-[AllylGly]KPY[AllylGly]L-OH) as the compound, how does the pIC50 read?
A: The pIC50 was 5.77.

Q: With `CC(C)C[C@H](NC(=O)[C@@H]1COCC=CCOC[C@H](N)C(=O)N[C@@H](CCCCN)C(=O)N2CCC[C@H]2C(=O)N[C@@H](Cc2ccc(O)cc2)C(=O)N1)C(=O)O` (H-[Ser(allyl)]KPY[Ser(allyl)]L-OH; staple 1-5) as the compound, how does the pIC50 read?
A: Its pIC50 is under 4.00.

Q: With `C=CCCCCCCC(=O)N[C@@H](CCCCN)C(=O)N1CCC[C@H]1C(=O)N[C@@H](Cc1ccc(O)c(CC=C)c1)C(=O)N[C@H](C(=O)N[C@@H](CC(C)C)C(=O)O)[C@@H](C)CC` (X2-KP[X3]IL-OH) as the compound, how does the pIC50 read?
A: The pIC50 was 5.85.

Molecular target: T1, Neurotensin receptor type 1
Assay: Agonist activity at GFP10-tagged human NTS1 expressed in CHO-K1 cells assessed as Rluc2-fused beta-arrestin2 recruitment after 20 mins by BRET assay
Type: functional, cell-based

Q: With `CC[C@H](C)[C@H](NC(=O)[C@@H]1Cc2ccc(O)c(c2)CC=CCCCCCCC(=O)N[C@@H](CCCCN)C(=O)N2CCC[C@H]2C(=O)N1)C(=O)N[C@@H](CC(C)C)C(=O)O` as the compound, how does the pEC50 read?
A: Its pEC50 is 5.86.

Test system: not listed separately
Assay: Half life in rat plasma by UPLC-MS analysis
Type: ADME, cell-free

Q: For `CC[C@H](C)[C@H](NC(=O)[C@H](Cc1ccc(O)cc1)NC(=O)[C@@H]1CCCN1C(=O)[C@H](CCCNC(=N)N)NC(=O)[C@@H](N)CCCNC(=N)N)C(=O)N[C@@H](CC(C)C)C(=O)O`, which half-life is on record?
A: The half-life was 3 min.

Q: For `CC[C@H](C)[C@H](NC(=O)[C@@H]1Cc2ccc(O)c(c2)CC=CCCCCCCC(=O)N[C@@H](CCCCN)C(=O)N2CCC[C@H]2C(=O)N1)C(=O)N[C@@H](CC(C)C)C(=O)O`, which half-life is on record?
A: Its half-life is 720 min.
